PMC7582192, “Targeting N-myristoylation for therapy of B-cell lymphomas” (Nature Communications, 2020)

Biological target: T1, Lyn (Homo sapiens, UniProt P07948)
T1 construct: endogenous Lyn in BL2 cells
Test: western blot of P-Lyn (Y396) in anti-IgM stimulated BL2 cells, […] for […] h
Assay type: cell-based

T1 sequence (P07948 2-512): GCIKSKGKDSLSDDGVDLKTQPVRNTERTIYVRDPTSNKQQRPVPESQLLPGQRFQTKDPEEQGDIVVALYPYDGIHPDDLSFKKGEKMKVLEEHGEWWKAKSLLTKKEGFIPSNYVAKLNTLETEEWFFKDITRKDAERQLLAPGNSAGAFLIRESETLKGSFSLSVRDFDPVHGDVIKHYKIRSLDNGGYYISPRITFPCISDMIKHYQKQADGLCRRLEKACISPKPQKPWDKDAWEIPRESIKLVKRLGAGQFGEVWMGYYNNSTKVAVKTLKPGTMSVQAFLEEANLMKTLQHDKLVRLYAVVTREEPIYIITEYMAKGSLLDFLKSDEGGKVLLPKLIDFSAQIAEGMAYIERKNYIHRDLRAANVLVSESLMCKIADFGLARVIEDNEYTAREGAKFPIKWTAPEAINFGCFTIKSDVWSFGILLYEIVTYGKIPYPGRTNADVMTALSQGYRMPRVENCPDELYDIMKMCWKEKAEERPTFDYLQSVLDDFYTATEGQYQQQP

## Cc1nc(Nc2ncc(C(=O)Nc3c(C)cccc3Cl)s2)cc(N2CCN(CCO)CC2)n1 [dasatinib]
  western blot of P-Lyn (Y396) in anti-IgM stimulated BL2 cells, 0.1 or 1.0 μM for: Dasatinib and ibrutinib selectively inhibited their respective targets as measured using anti-P-Lyn, anti-P-SFKs, and anti-P-BTK antibodies
